Reference: ChEMBL document CHEMBL1201862, “PubChem BioAssay data set” (2004)
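Assay format: 96-well plates, 48-hour exposure. GI50 is the concentration that inhibits growth by half.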 Active and inactive are the calls of the source. Rule as the data show it: active = GI50 up to about 1.1 µM and inactive = higher.

Tests used:
Test in all cases: DTP human tumour cell line panel, 48 h
DU-145 = system: DU-145
NCI-H226 = system: NCI-H226
OVCAR-4 = system: OVCAR-4
SR = system: SR
COLO 205 = system: COLO 205
Malme-3M = system: Malme-3M
SNB-75 = system: SNB-75
RXF 393 = system: RXF 393
IGROV-1 = system: IGROV-1
786-0 = system: 786-0
NCI-H23 = system: NCI-H23
HOP-62 = system: HOP-62
OVCAR-3 = system: OVCAR-3
SF-295 = system: SF-295
SN12C = system: SN12C
SF-539 = system: SF-539
RPMI-8226 = system: RPMI-8226
SK-MEL-5 = system: SK-MEL-5
A498 = system: A498

SMILES | GI50 (DU-145) | GI50 (NCI-H226) | GI50 (OVCAR-4) | GI50 (SR) | GI50 (COLO 205) | GI50 (Malme-3M) | GI50 (SNB-75) | GI50 (RXF 393) | GI50 (IGROV-1) | GI50 (786-0) | GI50 (NCI-H23) | GI50 (HOP-62) | GI50 (OVCAR-3) | GI50 (SF-295) | GI50 (SN12C) | GI50 (SF-539) | GI50 (RPMI-8226) | GI50 (SK-MEL-5) | GI50 (A498)
Nc1nc(Cl)cc(NCCO)n1 | > 100 µM (inactive) | > 100 µM (inactive) | > 100 µM (inactive) | > 100 µM (inactive) | > 100 µM (inactive) | > 100 µM (inactive) | > 100 µM (inactive) | > 100 µM (inactive) | > 100 µM (inactive) | > 100 µM (inactive) | > 100 µM (inactive) | > 100 µM (inactive) | > 100 µM (inactive) | > 100 µM (inactive) | > 100 µM (inactive) | > 100 µM (inactive) | > 100 µM (inactive) | > 100 µM (inactive) | > 100 µM (inactive)
CCCCc1ccc(Nc2nc(S)c3ncn(COCCO)c3n2)cc1 | 56.9 µM (inactive) | 88.7 µM (inactive) | 45.4 µM (inactive) | 24 µM (inactive) | 20.6 µM (inactive) | 23.3 µM (inactive) | 41 µM (inactive) | 56 µM (inactive) | 36 µM (inactive) | > 100 µM (inactive) | 34.4 µM (inactive) | 31 µM (inactive) | 21 µM (inactive) | 64.7 µM (inactive) | 39.7 µM (inactive) | > 100 µM (inactive) | 21.3 µM (inactive) | 62.1 µM (inactive) | > 100 µM (inactive)
CCC/C(Cl)=N/OC(=O)Nc1cc(C(F)(F)F)ccc1OC | 16.3 µM (inactive) | 15.5 µM (inactive) | 3.23 µM (inactive) | 2.79 µM (inactive) | 1.95 µM (inactive) | 2.92 µM (inactive) | 15.1 µM (inactive) | 6.31 µM (inactive) | 16.6 µM (inactive) | 6.05 µM (inactive) | 18.7 µM (inactive) | 18.1 µM (inactive) | 16.4 µM (inactive) | 18.3 µM (inactive) | 14.3 µM (inactive) | 15.3 µM (inactive) | 2.33 µM (inactive) | 7.93 µM (inactive) | 15.1 µM (inactive)
Cc1cn(C2CC(O)C(Cn3nncc3Cn3cnc4c(N)ncnc43)O2)c(=O)[nH]c1=O (stereo not given) | > 100 µM (inactive) | > 100 µM (inactive) | > 100 µM (inactive) | > 100 µM (inactive) | > 100 µM (inactive) | > 100 µM (inactive) | 58.3 µM (inactive) | > 100 µM (inactive) | > 100 µM (inactive) | > 100 µM (inactive) | > 100 µM (inactive) | > 100 µM (inactive) | > 100 µM (inactive) | > 100 µM (inactive) | > 100 µM (inactive) | > 100 µM (inactive) | > 100 µM (inactive) | > 100 µM (inactive) | > 100 µM (inactive)
CN(C)/C=N/S(=O)(=O)c1nn2c(C=O)c(-c3ccc([N+](=O)[O-])cc3)nc2s1 | 6.67 µM (inactive) | 19.6 µM (inactive) | 11.4 µM (inactive) | 2.06 µM (inactive) | 3.18 µM (inactive) | 2.23 µM (inactive) | 23.6 µM (inactive) | 5.62 µM (inactive) | 3.15 µM (inactive) | 2.29 µM (inactive) | 12 µM (inactive) | 26.1 µM (inactive) | 4.11 µM (inactive) | 35.1 µM (inactive) | 5.42 µM (inactive) | 8.11 µM (inactive) | 2.39 µM (inactive) | 3.3 µM (inactive) | 27.6 µM (inactive)
C=CC(=O)C#Cc1cnc(OC)nc1OC | 37.2 µM (inactive) | > 48.5 µM (inactive) | 20.8 µM (inactive) | 2.49 µM (inactive) | 3.83 µM (inactive) | 15.8 µM (inactive) | 12.6 µM (inactive) | 25.2 µM (inactive) | 22.9 µM (inactive) | 4.15 µM (inactive) | 17.5 µM (inactive) | 22.8 µM (inactive) | 18.2 µM (inactive) | 41.4 µM (inactive) | 18.7 µM (inactive) | 13.3 µM (inactive) | 1.6 µM (inactive) | 15.2 µM (inactive) | 34.3 µM (inactive)
COc1cc(C(c2cc(OC)c(OC)c(OC)c2)N2C(=O)CCC2C(=O)O)cc(OC)c1OC (stereo not given) | > 100 µM (inactive) | > 100 µM (inactive) | > 100 µM (inactive) | > 100 µM (inactive) | > 100 µM (inactive) | > 100 µM (inactive) | > 100 µM (inactive) | > 100 µM (inactive) | > 100 µM (inactive) | > 100 µM (inactive) | > 100 µM (inactive) | > 100 µM (inactive) | > 100 µM (inactive) | > 100 µM (inactive) | > 100 µM (inactive) | > 100 µM (inactive) | > 100 µM (inactive) | > 100 µM (inactive) | > 100 µM (inactive)
CCCCCCCCCc1cc(O)c(O)cc1CCCCCCCCC | > 10 µM (inactive) | > 10 µM (inactive) | > 10 µM (inactive) | > 10 µM (inactive) | > 10 µM (inactive) | > 10 µM (inactive) | > 10 µM (inactive) | > 10 µM (inactive) | > 10 µM (inactive) | > 10 µM (inactive) | > 10 µM (inactive) | > 10 µM (inactive) | > 10 µM (inactive) | > 10 µM (inactive) | > 10 µM (inactive) | > 10 µM (inactive) | > 10 µM (inactive) | > 10 µM (inactive) | > 10 µM (inactive)
CC(=O)Oc1c(C)c2c(c3ccccc13)OC(C)(C)C2 | 17.3 µM (inactive) | 22 µM (inactive) | 16.1 µM (inactive) | 17.7 µM (inactive) | 20.3 µM (inactive) | 16.3 µM (inactive) | 19 µM (inactive) | 20.7 µM (inactive) | 17.2 µM (inactive) | 15.3 µM (inactive) | 14 µM (inactive) | 20.1 µM (inactive) | 22.5 µM (inactive) | 17 µM (inactive) | 18.6 µM (inactive) | 20.4 µM (inactive) | 15.7 µM (inactive) | 10.5 µM (inactive) | 20.9 µM (inactive)
O=C1c2c(Br)sc(Br)c2[C@H]2NC(=S)O[C@@H]12 | 16 µM (inactive) | 20.7 µM (inactive) | 17.1 µM (inactive) | 2.41 µM (inactive) | 13.4 µM (inactive) | 15.7 µM (inactive) | 19.1 µM (inactive) | 13.3 µM (inactive) | 16.7 µM (inactive) | 14.2 µM (inactive) | 14.8 µM (inactive) | 18 µM (inactive) | 7.94 µM (inactive) | 20.6 µM (inactive) | 17.6 µM (inactive) | 17.9 µM (inactive) | 7.38 µM (inactive) | 15.8 µM (inactive) | 23.5 µM (inactive)
COc1ccc2c(c1)CCCN2S(=O)(=O)c1ccccc1[N+](=O)[O-] | 74.5 µM (inactive) | 44.2 µM (inactive) | 45.7 µM (inactive) | 11.1 µM (inactive) | 40.6 µM (inactive) | 40.8 µM (inactive) | 24.1 µM (inactive) | 25.6 µM (inactive) | 34.3 µM (inactive) | 58.5 µM (inactive) | 46.2 µM (inactive) | 47.5 µM (inactive) | 47.8 µM (inactive) | 30.5 µM (inactive) | 65.6 µM (inactive) | 27.7 µM (inactive) | 29.4 µM (inactive) | 41.8 µM (inactive) | 33.4 µM (inactive)
CCOC(=O)c1nc2ccccc2nc1Nc1ccc(F)cc1 | 42.2 µM (inactive) | 17.9 µM (inactive) | > 100 µM (inactive) | > 100 µM (inactive) | > 100 µM (inactive) | > 100 µM (inactive) | 3.52 µM (inactive) | 11.9 µM (inactive) | 13.7 µM (inactive) | 17.9 µM (inactive) | 20.8 µM (inactive) | 15.8 µM (inactive) | > 72.4 µM (inactive) | 12.9 µM (inactive) | 40.6 µM (inactive) | 14.2 µM (inactive) | > 100 µM (inactive) | > 100 µM (inactive) | 20.9 µM (inactive)
COc1cc2c(cc1OCCCCOc1cc(-c3ccc(F)cc3)nc(C)n1)N=C[C@@H]1CCCN1C2=O | 0.225 µM (active) | 1.05 µM (active) | 0.26 µM (active) | 0.16 µM (active) | 0.346 µM (active) | 0.82 µM (active) | 0.723 µM (active) | 0.429 µM (active) | 0.731 µM (active) | 0.486 µM (active) | 0.468 µM (active) | 0.451 µM (active) | 0.336 µM (active) | 0.303 µM (active) | 0.796 µM (active) | 0.927 µM (active) | 0.0519 µM (active) | 0.593 µM (active) | 1.01 µM (active)
N#C[BH2-][n+]1cn(C2CC(OP(=O)(O)OCC3OC(n4ccc(N)nc4=O)CC3O)C(CO)O2)c2nc(N)[nH]c(=O)c21 (stereo not given) | > 100 µM (inactive) | > 100 µM (inactive) | > 100 µM (inactive) | > 100 µM (inactive) | > 100 µM (inactive) | > 100 µM (inactive) | > 100 µM (inactive) | > 100 µM (inactive) | > 100 µM (inactive) | > 100 µM (inactive) | > 100 µM (inactive) | > 100 µM (inactive) | > 100 µM (inactive) | > 100 µM (inactive) | > 100 µM (inactive) | > 100 µM (inactive) | > 100 µM (inactive) | > 100 µM (inactive) | > 100 µM (inactive)
Cc1ccnc2nc(-c3ccc(F)cc3)cc(O)c12 | > 69.5 µM (inactive) | 64 µM (inactive) | 77.6 µM (inactive) | 3.82 µM (inactive) | 19.5 µM (inactive) | 92.7 µM (inactive) | 29.6 µM (inactive) | > 82.8 µM (inactive) | 26.4 µM (inactive) | 42.2 µM (inactive) | 75.7 µM (inactive) | 68.7 µM (inactive) | 67.6 µM (inactive) | 86.3 µM (inactive) | > 100 µM (inactive) | 57.3 µM (inactive) | 35.3 µM (inactive) | 22.6 µM (inactive) | 63.2 µM (inactive)
